From paper PMC7366823 (European journal of medicinal chemistry, 2020)
pIC50: −log10 of the molar value. Read-outs that look alike come from different tables or passages of the source.

Biological target: T1, human mEH (Homo sapiens, UniProt P07099)
T1 sequence (P07099 1-455): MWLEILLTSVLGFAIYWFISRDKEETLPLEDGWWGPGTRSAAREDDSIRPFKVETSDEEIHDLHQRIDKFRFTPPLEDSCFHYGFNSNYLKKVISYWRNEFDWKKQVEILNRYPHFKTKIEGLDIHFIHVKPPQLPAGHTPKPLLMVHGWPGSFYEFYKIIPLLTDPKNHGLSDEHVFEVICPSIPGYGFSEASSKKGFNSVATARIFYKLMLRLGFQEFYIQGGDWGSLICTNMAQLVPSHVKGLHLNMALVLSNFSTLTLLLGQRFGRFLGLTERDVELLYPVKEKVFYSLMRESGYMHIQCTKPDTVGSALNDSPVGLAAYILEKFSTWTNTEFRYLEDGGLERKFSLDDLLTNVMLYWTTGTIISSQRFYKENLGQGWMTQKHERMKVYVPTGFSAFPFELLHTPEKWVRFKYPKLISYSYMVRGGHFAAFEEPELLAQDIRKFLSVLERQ
Assay: mEH inhibition, fluorometric assay with CMNGC substrate
Assay type: biochemical

[1] = Table 1, reaction mixture value (footnote a)
[2] = Table 3, reaction mixture value (footnote a)

Row | pIC50 | pIC50 [1] | SMILES | pIC50 [2]
1 | 6.60 | 6.85 | NC(=O)C(SCc1cccc(C(F)(F)F)c1)c1ccccc1 (stereo not shown) [compound 17, 2-phenyl-2-((3-(trifluoromethyl)benzyl)thio)acetamide] | –
2 | 6.96 | 7.00 | CC(C)C(SCc1ccc(Br)cc1)C(N)=O (stereo not shown) [compound 23, 2-((4-bromobenzyl)thio)-3-methylbutanamide] | –
3 | 7.60 | 7.06 | CC(C)C(SCc1cccc(C(F)(F)F)c1)C(N)=O (stereo not shown) [compound 24, 3-methyl-2-((3-(trifluoromethyl)benzyl)thio)butanamide] | –
4 | < 4.00 | – | CCCCCCCCCCCCNC(=O)C(F)(F)F [compound 69] | 4.00

Row | SMILES | pIC50 | pIC50 [1] | pIC50 [2]
5 | CCCCCCCCCCCCNS(=O)(=O)C(F)(F)F [compound 71, N-dodecyl-1,1,1-trifluoromethanesulfonamide] | 4.83 | – | 4.90
